Reference: ChEMBL document CHEMBL4004867, “Novel antioxidants' synthesis and their anti-oxidative activity through activating Nrf2 signaling pathway” (2017)
Active and inactive are the calls of the source. The rule behind the calls is not given here.

Key:
PC-12 [1] = assay: Cytoprotective activity against H2O2-induced oxidative damage in rat PC12 cells assessed as increase in cell viability preincubated for 24 hrs followed by H2O2 addition measured after 24 hrs by MTT assay; format: functional, cell-based
PC-12 [2] = assay: Cytoprotective activity against H2O2-induced oxidative damage in rat PC12 cells assessed as early apoptotic cells at 2.5 uM preincubated for 24 hrs followed by H2O2 addition measured after 24 hrs by annexin V-FITC/propidium iodide staining-based flow cytometric method (reference value: 0.558%); format: functional
PC-12 [3] = assay: Cytoprotective activity against H2O2-induced oxidative damage in rat PC12 cells assessed as late apoptotic cells at 2.5 uM preincubated for 24 hrs followed by H2O2 addition measured after 24 hrs by annexin V-FITC/propidium iodide staining-based flow cytometric method (reference value: 10.7%); format: functional
PC-12 [4] = assay: Cytoprotective activity against H2O2-induced oxidative damage in rat PC12 cells assessed as necrotic cells at 2.5 uM preincubated for 24 hrs followed by H2O2 addition measured after 24 hrs by annexin V-FITC/propidium iodide staining-based flow cytometric method (reference value: 3.47%); format: functional
PC-12 [5] = assay: Cytoprotective activity against H2O2-induced oxidative damage in rat PC12 cells assessed as viable cells at 2.5 uM preincubated for 24 hrs followed by H2O2 addition measured after 24 hrs by annexin V-FITC/propidium iodide staining-based flow cytometric method (reference value: 85.2%); format: functional; settings: read-out: Activity
PC-12 [6] = assay: Cytoprotective activity against H2O2-induced oxidative damage in rat PC12 cells assessed as early apoptotic cells at 5 uM preincubated for 24 hrs followed by H2O2 addition measured after 24 hrs by annexin V-FITC/propidium iodide staining-based flow cytometric method (reference value: 0.558%); format: functional
PC-12 [7] = assay: Cytoprotective activity against H2O2-induced oxidative damage in rat PC12 cells assessed as late apoptotic cells at 5 uM preincubated for 24 hrs followed by H2O2 addition measured after 24 hrs by annexin V-FITC/propidium iodide staining-based flow cytometric method (reference value: 10.7%); format: functional
PC-12 [8] = assay: Cytoprotective activity against H2O2-induced oxidative damage in rat PC12 cells assessed as necrotic cells at 5 uM preincubated for 24 hrs followed by H2O2 addition measured after 24 hrs by annexin V-FITC/propidium iodide staining-based flow cytometric method (reference value: 3.47%); format: functional
PC-12 [9] = assay: Cytoprotective activity against H2O2-induced oxidative damage in rat PC12 cells assessed as viable cells at 5 uM preincubated for 24 hrs followed by H2O2 addition measured after 24 hrs by annexin V-FITC/propidium iodide staining-based flow cytometric method (reference value: 85.2%); format: functional; settings: read-out: Activity
PC-12 [10] = assay: Cytoprotective activity against H2O2-induced oxidative damage in rat PC12 cells assessed as early apoptotic cells at 10 uM preincubated for 24 hrs followed by H2O2 addition measured after 24 hrs by annexin V-FITC/propidium iodide staining-based flow cytometric method (reference value: 0.558%); format: functional
PC-12 [11] = assay: Cytoprotective activity against H2O2-induced oxidative damage in rat PC12 cells assessed as late apoptotic cells at 10 uM preincubated for 24 hrs followed by annexin V-FITC/propidium iodide staining-based flow cytometric method (reference value: 10.7%); format: functional
PC-12 [12] = assay: Cytoprotective activity against H2O2-induced oxidative damage in rat PC12 cells assessed as necrotic cells at 10 uM preincubated for 24 hrs followed by H2O2 addition measured after 24 hrs by annexin V-FITC/propidium iodide staining-based flow cytometric method (reference value: 3.47%); format: functional
PC-12 [13] = assay: Cytoprotective activity against H2O2-induced oxidative damage in rat PC12 cells assessed as viable cells at 10 uM preincubated for 24 hrs followed by H2O2 addition measured after 24 hrs by annexin V-FITC/propidium iodide staining-based flow cytometric method (reference value: 85.2%); format: functional; settings: read-out: Activity
PC-12 [14] = assay: Cytoprotective activity against H2O2-induced oxidative damage in rat PC12 cells preincubated for 24 hrs followed by H2O2 addition measured after 24 hrs by annexin V-FITC/propidium iodide staining-based flow cytometric method; format: functional, cell-based
[15] = Antioxidant activity assessed as DPPH radical scavenging activity relative to edaravone; format: functional
[16] = Antioxidant activity assessed as DPPH radical scavenging activity relative to tBHQ; format: functional
[17] = molecular target: T1, Nuclear factor erythroid 2-related factor 2 (Rattus norvegicus) (UniProt O54968); assay: Induction of Nrf2 nuclear translocation in rat PC12 cells at 10 uM after 6 hrs by DAPI staining-based immunofluorescence method; format: cell-based
T1 sequence (whole entry): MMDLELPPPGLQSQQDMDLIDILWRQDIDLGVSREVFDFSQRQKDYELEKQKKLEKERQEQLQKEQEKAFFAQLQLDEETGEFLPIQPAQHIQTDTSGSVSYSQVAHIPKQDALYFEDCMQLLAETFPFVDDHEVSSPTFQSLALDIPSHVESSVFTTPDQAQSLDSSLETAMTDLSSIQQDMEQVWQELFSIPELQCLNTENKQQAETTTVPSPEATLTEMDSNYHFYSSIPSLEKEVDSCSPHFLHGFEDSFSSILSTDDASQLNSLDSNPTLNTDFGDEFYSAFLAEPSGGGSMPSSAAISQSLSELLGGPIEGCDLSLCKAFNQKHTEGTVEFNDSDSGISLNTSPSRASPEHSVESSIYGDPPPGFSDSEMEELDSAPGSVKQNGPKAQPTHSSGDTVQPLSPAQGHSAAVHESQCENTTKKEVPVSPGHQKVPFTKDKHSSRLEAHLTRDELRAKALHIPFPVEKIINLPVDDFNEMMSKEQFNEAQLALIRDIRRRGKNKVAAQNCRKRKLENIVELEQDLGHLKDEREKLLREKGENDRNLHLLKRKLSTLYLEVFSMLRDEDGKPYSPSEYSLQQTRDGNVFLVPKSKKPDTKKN

[18] = molecular target: T1, Nuclear factor erythroid 2-related factor 2 (Rattus norvegicus); assay: Induction of Nrf2 activity in rat PC12 cells assessed as upregulation of GCLC mRNA levels at 2.5 to 10 uM after 24 hrs by RT-PCR method; format: cell-based
[19] = molecular target: T1, Nuclear factor erythroid 2-related factor 2 (Rattus norvegicus); assay: Induction of Nrf2 activity in rat PC12 cells assessed as upregulation of GCLC levels after 24 hrs by Western blot method; format: cell-based
PC-12 [20] = assay: Cytoprotective activity against H2O2-induced oxidative damage in rat PC12 cells assessed as increase in cell viability at 10 uM preincubated for 24 hrs followed by H2O2 addition measured after 24 hrs in presence of GCLC inhibitor BSO by MTT assay; format: functional, cell-based

SMILES | Activity (PC-12 [1]) | Activity (PC-12 [2]) | Activity (PC-12 [3]) | Activity (PC-12 [4]) | viability at 2.5 µM (PC-12 [5]) | Activity (PC-12 [6]) | Activity (PC-12 [7]) | Activity (PC-12 [8]) | viability at 5 µM (PC-12 [9]) | Activity (PC-12 [10]) | Activity (PC-12 [11]) | Activity (PC-12 [12]) | viability at 10 µM (PC-12 [13]) | Activity (PC-12 [14]) | fold change (FC) [15] | fold change (FC) [16] | Activity [17] | Activity [18] | Activity [19] | Activity (PC-12 [20])
CCC(=O)N1NC(c2cc(OC)c(OC)c(OC)c2)C2=C1CCC2 (stereo not drawn) | Dose-dependent effect | 1.46% | 2.65% | 1.69% | 94.2% | 2.64% | 2.44% | 1.46% | 93.5% | 1.64% | 2.27% | 2.96% | 93.1% | Dose-dependent effect | 0.5 | 0.5 | Active | Active | Dose-dependent effect | inactive
CC1=NN(c2ccccc2)C(=O)C1 [EDARAVONE] |  |  |  |  |  |  |  |  |  | 1.17% | 1.92% | 1.85% | 95.1% |  |  |  |  |  |  | 
CC(C)(C)c1cc(O)ccc1O [E319] |  |  |  |  |  |  |  |  |  | 1.1% | 0.882% | 0.882% | 97.1% |  |  |  |  |  |  | 
